# PubChem BioAssay (NCI)
#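 Assay format: 96-well plates, 48-hour exposure. GI50 = concentration required for 50% inhibition of growth. TGI: total growth inhibition.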
# What was measured:
# Assay in all cases: DTP human tumour cell line panel, 48 h
# [1] = test system: BT-549 breast
# [2] = test system: IGROV1 ovarian
# [3] = test system: RXF 393 renal
# [4] = test system: UO-31 renal
# [5] = test system: OVCAR-5 ovarian
# [6] = test system: SK-MEL-28 melanoma
# [7] = test system: RPMI-8226 leukemia
# [8] = test system: M14 melanoma
# [9] = test system: MDA-MB-231 breast
# [10] = test system: TK-10 renal
# [11] = test system: SW-620 colon
# [12] = test system: NCI-H522 lung
# [13] = test system: A498 renal
# [14] = test system: CCRF-CEM leukemia
# [15] = test system: MALME-3M melanoma
# [16] = test system: HOP-92 NSCLC
# [17] = test system: SN12C renal
# [18] = test system: SF-295 CNS
# [19] = test system: SK-MEL-5 melanoma
# [20] = test system: SK-OV-3 ovarian
# [21] = test system: HCT-116 colon
# [22] = test system: OVCAR-8 ovarian
# [23] = test system: OVCAR-4 ovarian
# [24] = test system: U251 CNS
# [25] = test system: MOLT-4 leukemia
# [26] = test system: NCI-H23 lung
# [27] = test system: ACHN renal
# [28] = test system: CAKI-1 renal
# [29] = test system: COLO 205 colon
structure (smiles),measurement,setting,value
O=C(Nc1ccc(F)c(Cl)c1)c1cc(-c2ccc(F)cc2F)ccc1O,GI50,[1],1.59 µM
same,TGI,[1],4.05 µM
same,GI50,[2],3.25 µM
same,TGI,[2],27 µM
same,GI50,[3],1.65 µM
same,TGI,[3],5.45 µM
same,GI50,[4],2.49 µM
same,TGI,[4],12.3 µM
same,GI50,[5],3.39 µM
same,TGI,[5],38.9 µM
same,GI50,[6],2.2 µM
same,TGI,[6],9.94 µM
same,GI50,[7],1.67 µM
same,TGI,[7],9.57 µM
same,GI50,[8],2.3 µM
same,TGI,[8],6.88 µM
same,GI50,[9],1.96 µM
same,TGI,[9],4.62 µM
same,GI50,[10],3.57 µM
same,TGI,[10],13.5 µM
same,GI50,[11],3.05 µM
same,TGI,[11],11.9 µM
same,GI50,[12],1.74 µM
same,TGI,[12],7.65 µM
same,GI50,[13],2.27 µM
same,TGI,[13],6.31 µM
same,GI50,[14],3.34 µM
same,TGI,[14],> 100 µM
same,GI50,[15],1.91 µM
same,TGI,[15],5.3 µM
same,GI50,[16],1.56 µM
same,TGI,[16],5.45 µM
same,GI50,[17],2.18 µM
same,TGI,[17],8.26 µM
same,GI50,[18],2.42 µM
same,TGI,[18],6.2 µM
same,GI50,[19],0.832 µM
same,TGI,[19],2.21 µM
same,GI50,[20],2.06 µM
same,TGI,[20],6.07 µM
same,GI50,[21],2.04 µM
same,TGI,[21],5.62 µM
same,GI50,[22],3.1 µM
same,TGI,[22],13.3 µM
same,GI50,[23],2.49 µM
same,TGI,[23],15.2 µM
same,GI50,[24],3.01 µM
same,TGI,[24],12.5 µM
same,GI50,[25],1.77 µM
same,TGI,[25],5.47 µM
same,GI50,[26],1.69 µM
same,TGI,[26],4.8 µM
same,GI50,[27],2.42 µM
same,TGI,[27],10.3 µM
same,GI50,[28],1.5 µM
same,TGI,[28],4.97 µM
same,GI50,[29],5.11 µM
same,TGI,[29],17.6 µM
